The values that follow come from patent US20240208992A1, “MACROCYCLES AS CFTR MODULATORS” (Idorsia Pharmaceuticals Ltd, priority 2021, published 2024).

Molecules are shown by their SMILES.

The target of the test is human F508del-CFTR (Homo sapiens, UniProt P13569, DEL508-508). Kind of test: F508del-CFTR cell surface expression (corrector activity), DiscoveRx ß-galactosidase complementation chemiluminescence assay in recombinant U2OS cell line.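 On all read-outs here: U2OS cells co-expressing ProLink-tagged F508del-CFTR and a membrane-anchored enzyme acceptor, where more surface CFTR restores β-galactosidase activity measured by chemiluminescence.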 To be noted: U2OS cell line, 16h compound incubation; for EC50: EC50, F508del-CFTR cell surface expression, geomean values; for Emax: U2OS, in relation to the Emax of the corrector lumacaftor (=100%), arithmetic mean values.
human F508del-CFTR, sequence (P13569 with tags, fused parts or gaps DEL508-508): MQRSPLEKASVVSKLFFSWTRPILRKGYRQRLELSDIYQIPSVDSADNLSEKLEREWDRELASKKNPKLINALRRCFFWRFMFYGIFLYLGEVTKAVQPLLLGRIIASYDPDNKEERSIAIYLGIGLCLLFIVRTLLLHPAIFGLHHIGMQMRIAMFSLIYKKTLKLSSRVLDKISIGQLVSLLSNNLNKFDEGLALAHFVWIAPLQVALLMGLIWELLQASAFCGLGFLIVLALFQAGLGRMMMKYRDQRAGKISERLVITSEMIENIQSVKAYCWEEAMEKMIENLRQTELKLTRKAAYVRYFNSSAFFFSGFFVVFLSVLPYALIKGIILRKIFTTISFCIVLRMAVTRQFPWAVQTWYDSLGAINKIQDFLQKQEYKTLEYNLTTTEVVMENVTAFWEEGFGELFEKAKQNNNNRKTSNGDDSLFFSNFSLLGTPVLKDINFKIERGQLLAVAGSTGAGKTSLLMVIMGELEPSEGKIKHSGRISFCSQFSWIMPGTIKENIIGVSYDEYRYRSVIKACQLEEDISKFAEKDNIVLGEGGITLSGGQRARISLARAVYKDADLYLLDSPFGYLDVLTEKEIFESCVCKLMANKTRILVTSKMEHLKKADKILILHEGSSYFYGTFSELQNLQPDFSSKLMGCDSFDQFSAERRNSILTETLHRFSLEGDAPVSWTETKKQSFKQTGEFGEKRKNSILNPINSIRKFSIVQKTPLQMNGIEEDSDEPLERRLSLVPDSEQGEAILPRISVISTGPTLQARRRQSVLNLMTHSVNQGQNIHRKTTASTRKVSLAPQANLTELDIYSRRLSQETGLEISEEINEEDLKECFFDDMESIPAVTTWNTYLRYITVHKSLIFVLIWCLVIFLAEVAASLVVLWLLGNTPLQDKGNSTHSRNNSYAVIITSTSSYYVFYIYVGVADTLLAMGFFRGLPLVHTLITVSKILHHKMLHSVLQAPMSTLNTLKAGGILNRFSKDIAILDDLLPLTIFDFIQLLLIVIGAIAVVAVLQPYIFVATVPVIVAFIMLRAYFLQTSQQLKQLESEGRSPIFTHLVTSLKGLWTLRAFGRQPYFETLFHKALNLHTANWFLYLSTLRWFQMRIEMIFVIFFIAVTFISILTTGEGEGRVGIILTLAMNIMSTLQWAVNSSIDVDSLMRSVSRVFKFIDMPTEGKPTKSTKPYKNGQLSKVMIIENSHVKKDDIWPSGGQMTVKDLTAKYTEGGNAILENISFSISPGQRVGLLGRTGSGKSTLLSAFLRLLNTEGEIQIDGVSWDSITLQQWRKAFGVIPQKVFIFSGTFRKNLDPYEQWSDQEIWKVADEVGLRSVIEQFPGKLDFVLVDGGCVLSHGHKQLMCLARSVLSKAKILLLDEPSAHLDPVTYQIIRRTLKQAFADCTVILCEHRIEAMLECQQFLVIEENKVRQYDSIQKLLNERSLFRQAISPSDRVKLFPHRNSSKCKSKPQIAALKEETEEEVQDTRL

As for `CC(C)C[C@H]1C(=O)N2CCCC[C@@H]2C(=O)N[C@H](Cc2ccccc2)COc2ccc3ncn(C)c3c2C(=O)N[C@H](C(=O)NCCc2ccc(-n3nccn3)cc2)CC(=O)N1C` [Example 31, (8S,12S,18aR,21R)-N-(4-(2H-1,2,3-triazol-2-yl)phenethyl)-21-benzyl-12-isobutyl-5,11-dimethyl-6,10,13,19-tetraoxo-6,7,8,9,10,11,12,13,16,17,18,18a,19,20,21,22-hexadecahydro-5H,15H-imidazo[4′,5′:5,6]benzo[1,2-p]pyrido[2,1-f][1]oxa[4,7,10,14]tetraazacycloheptadecine-8-carboxamide], the 50% effective concentration (EC50) is 463 nM and the Emax was 111%.
Taken in the same sequence, the figures for `COc1cccc2c1OC[C@@H](NC(=O)[C@@H]1CC(=O)N(C)[C@@H](CC(C)C)C(=O)N3CCOC[C@@H]3C(=O)N[C@H](Cc3ccccc3)COc3ccc4ccccc4c3C(=O)N1)C2` [Example 32, (4aR,7R,18S,22S)-7-benzyl-22-isobutyl-N-(-8-methoxychroman-3-yl)-21-methyl-5,16,20,23-tetraoxo-1,2,4,4a,5,6,7,8,16,17,18,19,20,21,22,23-hexadecahydronaphtho[1,2-p][1,4]oxazino[3,4-f][1]oxa[4,7,10,14]tetraazacycloheptadecine-18-carboxamide] were 318 nM and 146%.
Take `COc1cccc(OCCNC(=O)[C@@H]2CC(=O)N(C)[C@@H](CC(C)C)C(=O)N3CCOC[C@@H]3C(=O)N[C@H](Cc3ccccc3)COc3ccc4ccccc4c3C(=O)N2)c1` [Example 33, (4aR,7R,18S,22S)-7-benzyl-22-isobutyl-N-(2-(3-methoxyphenoxy)ethyl)-21-methyl-5,16,20,23-tetraoxo-1,2,4,4a,5,6,7,8,16,17,18,19,20,21,22,23-hexadecahydronaphtho[1,2-p][1,4]oxazino[3,4-f][1]oxa[4,7,10,14]tetraazacycloheptadecine-18-carboxamide]: the concentration giving a half-maximal response (EC50) is 255 nM and the Emax was found to be 141%.
Consider `COc1ccc(OCCNC(=O)[C@@H]2CC(=O)N(C)[C@@H](CC(C)C)C(=O)N3CCOC[C@@H]3C(=O)N[C@H](Cc3ccccc3)COc3ccc4ccccc4c3C(=O)N2)cc1` [Example 34, (4aR,7R,18S,22S)-7-benzyl-22-isobutyl-N-(2-(4-methoxyphenoxy)ethyl)-21-methyl-5,16,20,23-tetraoxo-1,2,4,4a,5,6,7,8,16,17,18,19,20,21,22,23-hexadecahydronaphtho[1,2-p][1,4]oxazino[3,4-f][1]oxa[4,7,10,14]tetraazacycloheptadecine-18-carboxamide], for which the EC50 turned out to be 260 nM and the Emax came out at 121%.
Take `COc1cc2c(cc1CCNC(=O)[C@@H]1CC(=O)N(C)[C@@H](CC(C)C)C(=O)N3CCOC[C@@H]3C(=O)N[C@H](Cc3ccccc3)COc3ccc4ccccc4c3C(=O)N1)OCCO2` [Example 35, (4aR,7R,18S,22S)-7-benzyl-22-isobutyl-N-(2-(7-methoxy-2,3-dihydrobenzo[b][1,4]dioxin-6-yl)ethyl)-21-methyl-5,16,20,23-tetraoxo-1,2,4,4a,5,6,7,8,16,17,18,19,20,21,22,23-hexadecahydronaphtho[1,2-p][1,4]oxazino[3,4-f][1]oxa[4,7,10,14]tetraazacycloheptadecine-18-carboxamide]: the EC50 was determined as 262 nM and the Emax came out at 109%.
For the molecule `Cc1c(CCNC(=O)[C@@H]2CC(=O)N(C)[C@@H](CC(C)C)C(=O)N3CCOC[C@@H]3C(=O)N[C@H](Cc3ccccc3)COc3ccc4ccccc4c3C(=O)N2)c(Cl)cc2c1OCCO2` [Example 36, (4aR,7R,18S,22S)-7-benzyl-N-(2-(7-chloro-5-methyl-2,3-dihydrobenzo[b][1,4]dioxin-6-yl)ethyl)-22-isobutyl-21-methyl-5,16,20,23-tetraoxo-1,2,4,4a,5,6,7,8,16,17,18,19,20,21,22,23-hexadecahydronaphtho[1,2-p][1,4]oxazino[3,4-f][1]oxa[4,7,10,14]tetraazacycloheptadecine-18-carboxamide], the half-maximal effective concentration (EC50) was 306 nM and the Emax was 120%.
For `CC(C)C[C@H]1C(=O)N2CCOC[C@@H]2C(=O)N[C@H](Cc2ccccc2)COc2ccc3ccccc3c2C(=O)N[C@H](C(=O)NCCc2cc3c(cc2Cl)OCCO3)CC(=O)N1C` [Example 37, (4aR,7R,18S,22S)-7-benzyl-N-(2-(7-chloro-2,3-dihydrobenzo[b][1,4]dioxin-6-yl)ethyl)-22-isobutyl-21-methyl-5,16,20,23-tetraoxo-1,2,4,4a,5,6,7,8,16,17,18,19,20,21,22,23-hexadecahydronaphtho[1,2-p][1,4]oxazino[3,4-f][1]oxa[4,7,10,14]tetraazacycloheptadecine-18-carboxamide], in that order: 122 nM and 205%.
For `CC(C)C[C@H]1C(=O)N2CCOC[C@@H]2C(=O)N[C@H](Cc2ccccc2)COc2ccc3ccccc3c2C(=O)N[C@H](C(=O)NCCc2noc3ccccc23)CC(=O)N1C` [Example 38, (4aR,7R,18S,22S)-N-(2-(benzo[d]isoxazol-3-yl)ethyl)-7-benzyl-22-isobutyl-21-methyl-5,16,20,23-tetraoxo-1,2,4,4a,5,6,7,8,16,17,18,19,20,21,22,23-hexadecahydronaphtho[1,2-p][1,4]oxazino[3,4-f][1]oxa[4,7,10,14]tetraazacycloheptadecine-18-carboxamide], in that order: 299 nM and 191%.
Taken in the same sequence, the figures for `CC(C)C[C@H]1C(=O)N2CCOC[C@@H]2C(=O)N[C@H](Cc2ccccc2)COc2ccc3ccccc3c2C(=O)N[C@H](C(=O)NCCc2ccc3c(c2)OCCO3)CC(=O)N1C` [Example 39, (4aR,7R,18S,22S)-7-benzyl-N-(2-(2,3-dihydrobenzo[b][1,4]dioxin-6-yl)ethyl)-22-isobutyl-21-methyl-5,16,20,23-tetraoxo-1,2,4,4a,5,6,7,8,16,17,18,19,20,21,22,23-hexadecahydronaphtho[1,2-p][1,4]oxazino[3,4-f][1]oxa[4,7,10,14]tetraazacycloheptadecine-18-carboxamide] were 415 nM and 450%.
Consider `CC(C)C[C@H]1C(=O)N2CCOC[C@@H]2C(=O)N[C@H](Cc2ccccc2)COc2ccc3ccccc3c2C(=O)N[C@H](C(=O)NCCc2ccc(C#N)cc2)CC(=O)N1C` [Example 40, (4aR,7R,18S,22S)-7-benzyl-N-(4-cyanophenethyl)-22-isobutyl-21-methyl-5,16,20,23-tetraoxo-1,2,4,4a,5,6,7,8,16,17,18,19,20,21,22,23-hexadecahydronaphtho[1,2-p][1,4]oxazino[3,4-f][1]oxa[4,7,10,14]tetraazacycloheptadecine-18-carboxamide], for which the EC50 worked out at 897 nM and the maximal effect (Emax) amounted to 147%.
For `CC(C)C[C@H]1C(=O)N2CCOC[C@@H]2C(=O)N[C@H](Cc2ccccc2)COc2ccc3ccccc3c2C(=O)N[C@H](C(=O)NCCc2cccc(-n3nccn3)c2)CC(=O)N1C` [Example 41, (4aR,7R,18S,22S)-N-(3-(2H-1,2,3-triazol-2-yl)phenethyl)-7-benzyl-22-isobutyl-21-methyl-5,16,20,23-tetraoxo-1,2,4,4a,5,6,7,8,16,17,18,19,20,21,22,23-hexadecahydronaphtho[1,2-p][1,4]oxazino[3,4-f][1]oxa[4,7,10,14]tetraazacycloheptadecine-18-carboxamide], in that order: 280 nM and 215%.
For `CC(C)C[C@H]1C(=O)N2CCOC[C@@H]2C(=O)N[C@H](Cc2ccccc2)COc2ccc3ccccc3c2C(=O)N[C@H](C(=O)NCCc2ccc3c(c2)OCC3)CC(=O)N1C` [Example 42, (4aR,7R,18S,22S)-7-benzyl-N-(2-(2,3-dihydrobenzofuran-6-yl)ethyl)-22-isobutyl-21-methyl-5,16,20,23-tetraoxo-1,2,4,4a,5,6,7,8,16,17,18,19,20,21,22,23-hexadecahydronaphtho[1,2-p][1,4]oxazino[3,4-f][1]oxa[4,7,10,14]tetraazacycloheptadecine-18-carboxamide], in that order: 353 nM and 419%.
Take `Cc1noc(C)c1CCNC(=O)[C@@H]1CC(=O)N(C)[C@@H](CC(C)C)C(=O)N2CCOC[C@@H]2C(=O)N[C@H](Cc2ccccc2)COc2ccc3ccccc3c2C(=O)N1` [Example 43, (4aR,7R,18S,22S)-7-benzyl-N-(2-(3,5-dimethylisoxazol-4-yl)ethyl)-22-isobutyl-21-methyl-5,16,20,23-tetraoxo-1,2,4,4a,5,6,7,8,16,17,18,19,20,21,22,23-hexadecahydronaphtho[1,2-p][1,4]oxazino[3,4-f][1]oxa[4,7,10,14]tetraazacycloheptadecine-18-carboxamide]: the EC50 was 862 nM and the Emax amounted to 137%.
Taken in the same sequence, the figures for `CCc1nc(CCNC(=O)[C@@H]2CC(=O)N(C)[C@@H](CC(C)C)C(=O)N3CCOC[C@@H]3C(=O)N[C@H](Cc3ccccc3)COc3ccc4ccccc4c3C(=O)N2)no1` [Example 44, (4aR,7R,18S,22S)-7-benzyl-N-(2-(5-ethyl-1,2,4-oxadiazol-3-yl)ethyl)-22-isobutyl-21-methyl-5,16,20,23-tetraoxo-1,2,4,4a,5,6,7,8,16,17,18,19,20,21,22,23-hexadecahydronaphtho[1,2-p][1,4]oxazino[3,4-f][1]oxa[4,7,10,14]tetraazacycloheptadecine-18-carboxamide] were 571 nM and 247%.
Taken in the same sequence, the figures for `CC(C)C[C@H]1C(=O)N2CCOC[C@@H]2C(=O)N[C@H](Cc2ccccc2)COc2ccc3ccccc3c2C(=O)N[C@H](C(=O)NCCc2noc(C3CC3)n2)CC(=O)N1C` [Example 45, (4aR,7R,18S,22S)-7-benzyl-N-(2-(5-cyclopropyl-1,2,4-oxadiazol-3-yl)ethyl)-22-isobutyl-21-methyl-5,16,20,23-tetraoxo-1,2,4,4a,5,6,7,8,16,17,18,19,20,21,22,23-hexadecahydronaphtho[1,2-p][1,4]oxazino[3,4-f][1]oxa[4,7,10,14]tetraazacycloheptadecine-18-carboxamide] were 682 nM and 324%.

Broadly, the EC50 is the concentration that produces a half-maximal response. The term Emax denotes the size of the effect at its maximum, as opposed to the concentration needed.
